Measured values from article PMC2213140 (The Journal of Experimental Medicine, 2005).

How the values were obtained:
[1] = system: Jurkat cells transfected with A2K^b cDNA; test: In vitro killing assay with CTL from ESO 9V-immunized mice; type: cell-based
[2] = system: 1G4 CTL clone with peptide-pulsed T2 target cells; test: Live cell video microscopy of CTL lytic granule polarization; type: cell-based; settings: T2 cells pulsed with 1 μM peptide
[3] = system: 1G4 CTL clone with peptide-pulsed T2 target cells; type: cell-based; settings: 30 min at 37°C
[4] = system: splenocytes from ESO 9V- or ESO 9C-immunized A2K^b mice; test: Ex-vivo IFN-γ ELISPOT assay; type: cell-based, mouse; settings: reducing agent TCEP, unpublished data
[5] = biological target: HLA-A2 loaded with the wild-type NY-ESO-1 157-165 peptide …; test: SPR
[6] = biological target: HLA-A2 loaded with the NY-ESO-1 157-165 analogue peptide …; test: SPR

| Substance | lysis of peptide-loaded target cells by CTL from ESO 9V-immunized mice [1] | rate of lytic granule polarization [2] | time from initial contact to granule polarization at the synapse ([2]; 1 h at 37°C, single CTL followed) | time without polarization of lytic granules toward either target ([2]; second CTL (red arrow)) | granule polarization [3] | effect of TCEP on IFN-γ responses to ESO 9C peptide [4] | Kd [5] | Kd [6] |
| --- | --- | --- | --- | --- | --- | --- | --- | --- |
| SLLMWITQC [ESO 9C] | capable of lysing target cells loaded with wild-type ESO 9C peptide | lytic granule polarization is slow | ≤ 17 min | > 22 min | polarization was poor | responses were enhanced in the presence of the reducing agent TCEP |  |  |
| soluble 1G4 TCR (NY-ESO-1 157-165-specific TCR from the 1G4 CTL clone) |  |  |  |  |  |  | 13.3 µM | 5 µM |
